Assay [1] addresses Sodium-dependent dopamine transporter (Homo sapiens, UniProt Q01959).
Assay [2] has as its target T1, Muscarinic acetylcholine receptor M2 (Homo sapiens, UniProt P08172).
T1 sequence (P08172 whole entry): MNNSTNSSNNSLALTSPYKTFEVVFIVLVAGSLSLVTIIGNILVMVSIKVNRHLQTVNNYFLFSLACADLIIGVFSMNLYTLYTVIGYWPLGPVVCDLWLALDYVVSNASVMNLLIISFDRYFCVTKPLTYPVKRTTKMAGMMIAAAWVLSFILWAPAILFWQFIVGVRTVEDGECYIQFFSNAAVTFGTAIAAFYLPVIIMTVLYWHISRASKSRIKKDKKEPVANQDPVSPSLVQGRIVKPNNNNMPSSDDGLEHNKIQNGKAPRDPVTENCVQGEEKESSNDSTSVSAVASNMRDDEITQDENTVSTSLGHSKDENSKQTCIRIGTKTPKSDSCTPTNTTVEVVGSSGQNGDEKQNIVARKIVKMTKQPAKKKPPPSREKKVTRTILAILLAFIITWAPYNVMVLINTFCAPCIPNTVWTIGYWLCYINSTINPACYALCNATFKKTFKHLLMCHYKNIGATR
The format is functional, cell-based.

For assay [3], the target named is T2, Alpha-2A adrenergic receptor (Homo sapiens, UniProt P08913).
T2 sequence (P08913 whole entry): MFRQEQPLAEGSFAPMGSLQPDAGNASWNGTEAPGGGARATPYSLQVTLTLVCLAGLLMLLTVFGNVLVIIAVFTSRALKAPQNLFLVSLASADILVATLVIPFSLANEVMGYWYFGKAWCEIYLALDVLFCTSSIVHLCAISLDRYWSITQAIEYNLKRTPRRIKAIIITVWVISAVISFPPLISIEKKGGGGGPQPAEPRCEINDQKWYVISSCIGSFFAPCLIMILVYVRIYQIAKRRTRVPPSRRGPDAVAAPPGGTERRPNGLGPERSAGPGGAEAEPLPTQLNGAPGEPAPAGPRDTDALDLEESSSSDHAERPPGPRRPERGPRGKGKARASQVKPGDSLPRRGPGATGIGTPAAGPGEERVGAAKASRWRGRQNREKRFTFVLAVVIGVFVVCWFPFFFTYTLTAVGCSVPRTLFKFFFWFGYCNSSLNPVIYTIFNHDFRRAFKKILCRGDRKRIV
The format is functional, cell-based.

The next assay concerns the target D(1A) dopamine receptor (Homo sapiens, UniProt P21728). Type of assay: functional, cell-based.
Assay [4] has as its target T3, Alpha-1A adrenergic receptor (Homo sapiens, UniProt P35348).
T3 sequence (P35348 whole entry): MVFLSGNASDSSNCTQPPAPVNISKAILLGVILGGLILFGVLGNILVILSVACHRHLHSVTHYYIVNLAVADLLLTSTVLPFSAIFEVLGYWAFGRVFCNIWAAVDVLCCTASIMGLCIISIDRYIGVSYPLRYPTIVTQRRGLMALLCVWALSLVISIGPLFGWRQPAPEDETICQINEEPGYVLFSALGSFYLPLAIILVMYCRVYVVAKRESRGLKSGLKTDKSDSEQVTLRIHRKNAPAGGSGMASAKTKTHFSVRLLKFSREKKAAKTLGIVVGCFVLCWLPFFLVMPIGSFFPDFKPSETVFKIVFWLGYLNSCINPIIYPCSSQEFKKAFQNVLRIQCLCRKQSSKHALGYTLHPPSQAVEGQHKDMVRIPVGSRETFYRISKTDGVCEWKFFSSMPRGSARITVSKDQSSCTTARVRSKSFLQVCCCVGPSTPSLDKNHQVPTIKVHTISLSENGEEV
The format is functional, cell-based.

The target in assay [5] is Voltage-dependent L-type calcium channel subunit alpha-1C (Rattus norvegicus, UniProt P22002). The format is functional.
In assay [6] the target is T1, Muscarinic acetylcholine receptor M2. The format is functional, cell-based. This is another data set of the same source.
For assay [7], the target named is T4, 5-hydroxytryptamine receptor 2C (Homo sapiens, UniProt P28335).
T4 sequence (P28335 whole entry): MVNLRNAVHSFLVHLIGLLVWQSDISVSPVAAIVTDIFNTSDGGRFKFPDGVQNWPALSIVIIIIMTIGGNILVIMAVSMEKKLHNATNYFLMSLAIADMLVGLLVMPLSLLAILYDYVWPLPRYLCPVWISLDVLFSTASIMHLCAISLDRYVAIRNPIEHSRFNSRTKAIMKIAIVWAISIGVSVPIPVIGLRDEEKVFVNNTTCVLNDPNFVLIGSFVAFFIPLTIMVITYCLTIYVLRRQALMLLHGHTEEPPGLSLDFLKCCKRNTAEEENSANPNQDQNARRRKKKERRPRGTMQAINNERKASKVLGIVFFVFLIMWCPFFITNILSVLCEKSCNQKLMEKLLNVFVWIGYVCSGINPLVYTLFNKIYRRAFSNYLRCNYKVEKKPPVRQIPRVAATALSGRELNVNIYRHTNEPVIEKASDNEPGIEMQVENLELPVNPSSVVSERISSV

The target in assay [8] is T5, Amine oxidase [flavin-containing] A (Homo sapiens, UniProt P21397).
T5 sequence (P21397 whole entry): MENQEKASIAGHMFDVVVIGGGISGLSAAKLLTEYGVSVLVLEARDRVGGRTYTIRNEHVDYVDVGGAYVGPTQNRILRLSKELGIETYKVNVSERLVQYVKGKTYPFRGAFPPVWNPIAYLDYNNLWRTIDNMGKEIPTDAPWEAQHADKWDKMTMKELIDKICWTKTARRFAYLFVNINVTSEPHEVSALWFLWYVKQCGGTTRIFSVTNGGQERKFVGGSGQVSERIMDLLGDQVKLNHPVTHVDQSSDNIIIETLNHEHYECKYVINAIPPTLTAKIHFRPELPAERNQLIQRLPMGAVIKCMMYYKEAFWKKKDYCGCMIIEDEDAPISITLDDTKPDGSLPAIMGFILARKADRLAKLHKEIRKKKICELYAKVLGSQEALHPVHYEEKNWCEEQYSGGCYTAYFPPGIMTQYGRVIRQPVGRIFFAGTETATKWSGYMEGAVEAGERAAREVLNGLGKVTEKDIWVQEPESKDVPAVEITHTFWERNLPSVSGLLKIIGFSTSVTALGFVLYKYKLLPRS
Type of assay: functional.

Assay [9] concerns the target Voltage-gated inwardly rectifying potassium channel KCNH2 (Homo sapiens, UniProt Q12809). The format is functional. To be noted: read-out: AC50.
For assay [10], the target named is cGMP-inhibited 3',5'-cyclic phosphodiesterase 3A (Homo sapiens, UniProt Q14432). Type of assay: functional.
Chain of cGMP-inhibited 3',5'-cyclic phosphodiesterase 3A (Q14432 whole entry): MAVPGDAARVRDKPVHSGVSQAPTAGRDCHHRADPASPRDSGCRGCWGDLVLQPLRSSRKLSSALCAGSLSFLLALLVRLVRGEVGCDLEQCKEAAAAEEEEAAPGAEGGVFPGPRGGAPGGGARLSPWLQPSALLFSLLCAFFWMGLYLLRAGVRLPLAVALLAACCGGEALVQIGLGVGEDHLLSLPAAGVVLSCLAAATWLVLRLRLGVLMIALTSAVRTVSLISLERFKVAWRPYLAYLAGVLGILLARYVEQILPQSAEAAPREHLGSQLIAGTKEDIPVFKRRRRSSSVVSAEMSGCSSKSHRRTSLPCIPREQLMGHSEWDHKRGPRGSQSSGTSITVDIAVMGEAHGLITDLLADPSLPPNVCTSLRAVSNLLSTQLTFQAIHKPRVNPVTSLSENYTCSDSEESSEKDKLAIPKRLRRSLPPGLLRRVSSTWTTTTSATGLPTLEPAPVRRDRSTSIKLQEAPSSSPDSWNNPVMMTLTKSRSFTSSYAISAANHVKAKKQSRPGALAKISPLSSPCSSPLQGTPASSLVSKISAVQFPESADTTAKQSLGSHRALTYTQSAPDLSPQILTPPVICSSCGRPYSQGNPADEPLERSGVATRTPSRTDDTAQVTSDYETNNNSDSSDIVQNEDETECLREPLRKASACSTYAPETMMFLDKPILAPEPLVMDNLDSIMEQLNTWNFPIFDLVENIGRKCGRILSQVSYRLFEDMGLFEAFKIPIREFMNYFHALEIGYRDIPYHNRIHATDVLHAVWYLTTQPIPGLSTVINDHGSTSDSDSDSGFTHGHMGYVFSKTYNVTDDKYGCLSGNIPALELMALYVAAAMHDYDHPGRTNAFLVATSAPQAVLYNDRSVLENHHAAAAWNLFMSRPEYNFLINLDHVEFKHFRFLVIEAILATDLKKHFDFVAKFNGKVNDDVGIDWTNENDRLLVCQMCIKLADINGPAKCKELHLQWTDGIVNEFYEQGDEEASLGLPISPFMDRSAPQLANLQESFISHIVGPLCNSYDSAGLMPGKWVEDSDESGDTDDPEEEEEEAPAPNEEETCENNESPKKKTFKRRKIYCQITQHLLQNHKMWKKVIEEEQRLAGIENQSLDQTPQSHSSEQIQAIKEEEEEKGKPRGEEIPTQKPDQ
Also: assay procedure not described here.

Chain of Sodium-dependent dopamine transporter (Q01959 whole entry): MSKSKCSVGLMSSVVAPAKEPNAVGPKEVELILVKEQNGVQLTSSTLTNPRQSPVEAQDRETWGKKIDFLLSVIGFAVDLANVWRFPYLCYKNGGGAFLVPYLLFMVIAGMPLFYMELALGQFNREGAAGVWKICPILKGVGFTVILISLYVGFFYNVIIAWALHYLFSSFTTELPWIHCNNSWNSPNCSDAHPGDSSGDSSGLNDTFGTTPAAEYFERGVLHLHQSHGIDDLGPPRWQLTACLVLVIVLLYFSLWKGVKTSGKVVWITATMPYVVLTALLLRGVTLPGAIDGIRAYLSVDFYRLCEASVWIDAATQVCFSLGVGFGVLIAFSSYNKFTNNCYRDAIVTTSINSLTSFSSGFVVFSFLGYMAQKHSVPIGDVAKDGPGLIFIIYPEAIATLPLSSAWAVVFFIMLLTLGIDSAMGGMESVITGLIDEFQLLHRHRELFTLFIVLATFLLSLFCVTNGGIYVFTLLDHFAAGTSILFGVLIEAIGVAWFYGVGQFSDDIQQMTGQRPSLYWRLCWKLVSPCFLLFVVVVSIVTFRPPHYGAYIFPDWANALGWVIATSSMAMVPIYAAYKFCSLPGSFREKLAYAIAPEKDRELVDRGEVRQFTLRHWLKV
Chain of D(1A) dopamine receptor (P21728 whole entry): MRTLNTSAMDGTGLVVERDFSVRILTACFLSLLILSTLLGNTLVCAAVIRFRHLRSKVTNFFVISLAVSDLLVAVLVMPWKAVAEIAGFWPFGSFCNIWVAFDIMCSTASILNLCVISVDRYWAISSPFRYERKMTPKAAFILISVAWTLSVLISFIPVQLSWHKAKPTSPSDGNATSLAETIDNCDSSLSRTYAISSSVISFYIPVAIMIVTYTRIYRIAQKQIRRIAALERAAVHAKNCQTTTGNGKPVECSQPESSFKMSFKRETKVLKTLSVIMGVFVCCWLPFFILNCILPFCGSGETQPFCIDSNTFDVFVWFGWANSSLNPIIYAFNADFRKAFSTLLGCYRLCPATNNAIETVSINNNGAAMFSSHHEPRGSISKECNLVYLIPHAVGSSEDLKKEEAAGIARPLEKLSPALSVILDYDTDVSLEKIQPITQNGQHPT
Chain of Voltage-gated inwardly rectifying potassium channel KCNH2 (Q12809 whole entry): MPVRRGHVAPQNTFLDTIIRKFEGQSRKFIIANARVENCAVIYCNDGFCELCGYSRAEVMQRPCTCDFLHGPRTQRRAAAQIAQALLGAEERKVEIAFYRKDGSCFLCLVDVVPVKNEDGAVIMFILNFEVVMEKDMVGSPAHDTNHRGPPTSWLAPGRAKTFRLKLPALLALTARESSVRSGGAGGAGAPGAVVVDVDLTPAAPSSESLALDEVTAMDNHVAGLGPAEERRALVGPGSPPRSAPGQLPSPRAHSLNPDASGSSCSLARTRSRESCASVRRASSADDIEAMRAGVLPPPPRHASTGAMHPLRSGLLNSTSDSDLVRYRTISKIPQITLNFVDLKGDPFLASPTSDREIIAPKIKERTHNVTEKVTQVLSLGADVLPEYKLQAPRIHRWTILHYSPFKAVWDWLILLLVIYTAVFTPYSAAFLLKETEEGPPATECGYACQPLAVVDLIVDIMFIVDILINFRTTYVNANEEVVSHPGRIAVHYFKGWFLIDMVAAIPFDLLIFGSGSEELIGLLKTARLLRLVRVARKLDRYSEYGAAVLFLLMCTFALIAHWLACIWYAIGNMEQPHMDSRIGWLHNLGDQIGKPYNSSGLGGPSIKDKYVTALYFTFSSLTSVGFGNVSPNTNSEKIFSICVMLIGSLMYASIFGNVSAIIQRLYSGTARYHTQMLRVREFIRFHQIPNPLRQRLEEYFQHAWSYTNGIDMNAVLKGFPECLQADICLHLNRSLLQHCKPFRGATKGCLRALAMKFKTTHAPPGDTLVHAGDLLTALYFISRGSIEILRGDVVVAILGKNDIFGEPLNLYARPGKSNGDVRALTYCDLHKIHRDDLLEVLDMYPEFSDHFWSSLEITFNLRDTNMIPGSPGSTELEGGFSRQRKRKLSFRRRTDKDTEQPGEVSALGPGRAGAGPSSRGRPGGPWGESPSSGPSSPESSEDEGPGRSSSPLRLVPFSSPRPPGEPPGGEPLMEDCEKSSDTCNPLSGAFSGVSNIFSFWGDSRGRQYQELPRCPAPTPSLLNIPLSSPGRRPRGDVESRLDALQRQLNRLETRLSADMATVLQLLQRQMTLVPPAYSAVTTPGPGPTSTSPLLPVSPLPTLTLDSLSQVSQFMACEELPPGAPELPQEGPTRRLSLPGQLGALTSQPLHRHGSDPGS

One may read the AC50 as the concentration giving half of the maximal activity seen. As to `COc1ccc(CCNCC(O)COc2cccc(C)c2)cc1OC` (configuration not stated) [BEVANTOLOL], the concentration at half-maximal activity (AC50) is 16.2 µM in assay [1]; above 10 µM in [2]; above 10 µM in assay [3]; above 30 µM on D(1A) dopamine receptor; above 30 µM in [4]; above 10 µM in [5]. Moreover, the AC50 in [6] was above 10 µM; in [7], above 30 µM; in assay [8] it was above 10 µM; in assay [9] it was 3.41 µM; in assay [10] it was above 30 µM.

Take `CC(C)(C)NCC(O)COc1cccc2c1CCC(=O)N2` (configuration not stated) [CARTEOLOL]: the concentration at half-maximal activity (AC50) in assay [1] was above 10 µM; in assay [2], above 10 µM; in assay [3], above 10 µM; on D(1A) dopamine receptor, above 10 µM; in [4] it was above 30 µM; in assay [5], above 10 µM. Moreover, the AC50 in assay [6] is above 10 µM; in [7], above 30 µM; in assay [8] it was above 10 µM; in assay [9] it was above 30 µM; in [10], above 30 µM.

For the compound `Fc1ccc(C(c2ccccc2)(c2ccccc2F)n2ccnc2)cc1` (configuration not stated) [FLUTRIMAZOLE], the AC50 in assay [1] is 23 µM; in assay [2], above 30 µM; in assay [3], above 30 µM; on D(1A) dopamine receptor, above 30 µM; in [4], above 30 µM; in assay [5], above 30 µM. The AC50 in assay [6] was above 30 µM; in [7], above 30 µM; in assay [8], above 30 µM; in [9], 1.68 µM; in assay [10] it was above 30 µM.

As to `Cc1c(OCC(F)(F)F)ccnc1C[S+]([O-])c1nc2ccccc2[nH]1` (configuration not stated) [LANSOPRAZOLE], the AC50 is above 10 µM in assay [1]; above 10 µM in assay [2]; above 10 µM in assay [3]; above 10 µM at D(1A) dopamine receptor; above 30 µM in assay [4]; above 10 µM in assay [5]. In addition, the AC50 was above 10 µM in assay [6]; above 10 µM in assay [7]; above 10 µM in assay [8]; above 30 µM in assay [9]; above 10 µM in assay [10].

In the case of `C[C@@H]1O[C@@H](O[C@@H]2C=C3CC[C@@H]4[C@H](CC[C@]5(C)[C@@H](c6ccc(=O)oc6)CC[C@]45O)[C@@]3(C)CC2)[C@H](O)[C@H](O)[C@H]1O` [PROSCILLARIDIN], the AC50 (in [1]; in assay [2]; in assay [3]; at D(1A) dopamine receptor; in [4]; in [5]) was above 30 µM each time. Also, the AC50 in assay [6], in [7], in assay [8], in assay [9] and in assay [10] was above 30 µM throughout.

On to `C#C[C@]1(O)CC[C@H]2[C@@H]3[C@H](C)CC4=C(CCC(=O)C4)[C@H]3CC[C@@]21C` [TIBOLONE], for which the concentration at half-maximal activity (AC50) is 27 µM in [1]; above 30 µM in assay [2]; above 30 µM in [3]; above 30 µM on D(1A) dopamine receptor; above 30 µM in [4]; above 30 µM in assay [5]. Besides, the AC50 in [6], in assay [7], in assay [8], in assay [9] and in assay [10] was above 30 µM each time.

Turning to `Cc1nnc2n1-c1ccc(Cl)cc1C(c1ccccc1Cl)=NC2` [TRIAZOLAM], the AC50 in assay [1] is above 30 µM; in [2] it was above 10 µM; in [3] it was above 10 µM; at D(1A) dopamine receptor, above 10 µM; in [4] it was 14 µM; in assay [5] it was above 10 µM. Further, the AC50 in assay [6] was above 10 µM; in assay [7], above 30 µM; in assay [8] it was above 10 µM; in assay [9], above 30 µM; in assay [10], above 30 µM.
